Experimental data published in US20140309229A1, “METHODS FOR SELECTING AND TREATING CANCER IN PATIENTS WITH IGF-1R/IR INHIBITORS” (priority 2011, published 2014).

Tests used:
Experiment in all cases: MTS proliferation assay
Assay type in all cases: cell-based, human
CACO-2 = system: CACO-2
Protocol: (§1) Cell lines and in vitro cytotoxicity assay. Cells were maintained at 37° C. under standard cell culture conditions. Cells were plated at an optimized density for each cell line per well in 96-well microtiter FALCON® plates, incubated overnight, and then exposed to a serial dilution of drug. […] The results were expressed as an IC50, which is the drug concentration required to inhibit cell proliferation to 50% of that of untreated control cells. The mean IC50 and standard deviation (SD) from multiple tests for each cell line were calculated.
(§2) In vitro Cellular Proliferation Assays.

CCD18CO = system: CCD18CO
Protocol: as §1, §2

COLO-201 = system: COLO-201
Protocol: as §1, §2

COLO-320-HSR = system: COLO-320-HSR
Protocol: as §1, §2

COLO-678 = system: COLO-678
Protocol: as §1, §2

COLO741 = system: COLO741
Protocol: as §1, §2

CX-1 = system: CX-1
Protocol: as §1, §2

DIFI = system: DIFI
Protocol: as §1, §2

DLD-1 = conditions: for IC50: Homo sapiens
Protocol: as §1, §2

HCT-116 = system: HCT-116
Protocol: as §1, §2

HCT116SS42 = system: HCT116SS42
Protocol: as §1, §2

HCT8 = system: HCT8
Protocol: as §1, §2

HT-29 = system: HT-29
Protocol: as §1, §2

HT55 = system: HT55
Protocol: as §1, §2

KM12C = system: KM12C
Protocol: as §1, §2

LS174T = system: LS174T
Protocol: as §1, §2

NCI-H508 = system: NCI-H508
Protocol: as §1, §2

OUMS-23 = system: OUMS-23
Protocol: as §1, §2

RCM-1 = system: RCM-1
Protocol: as §1, §2

RKO = system: RKO
Protocol: as §1, §2

SNU-407 = system: SNU-407
Protocol: as §1, §2

SNU-81 = system: SNU-81
Protocol: as §1, §2

SNU-C1 = system: SNU-C1
Protocol: as §1, §2

SW1417 = system: SW1417
Protocol: as §1, §2

SW480 = system: SW480
Protocol: as §1, §2

SW620 = system: SW620
Protocol: as §1, §2

SW837 = system: SW837
Protocol: as §1, §2

SW948 = system: SW948
Protocol: as §1, §2

T84 = system: T84
Protocol: as §1, §2

[1] = preliminary panel of 45 CRC cell lines

Q: With C[C@@]1(C(=O)Nc2ccc(F)nc2)CCCN1c1nc(Nc2cc(C3CC3)n[nH]2)c2cccn2n1 [BMS-754807, (2S)-1-(4-((5-cyclopropyl-1H-pyrazol-3-yl)amino)pyrrolo[2,1-f][1,2,4]triazin-2-yl)-N-(6-fluoro-3-pyridinyl)-2-methyl-2-pyrrolidinecarboxamide] as the compound, how does the “Sensitivity Classes” value (CACO-2; CACO-2) read?
A: R (“R” refers Resistant)

Q: What about the “Sensitivity to BMS-754807” value (CACO-2; CACO-2, preliminary panel of 45 CRC cell lines) of the same compound?
A: Resistant (resistant cell lines had IC50 values of >50 nmol/L)

Q: And the IC50 (CACO-2; Homo sapiens, Caco-2, 72 h)?
A: 5500 nM

Q: What about the “Sensitivity Classes” value (CCD18CO; CCD18CO) of the same compound?
A: R (“R” refers Resistant)

Q: And the “Sensitivity to BMS-754807” value (CCD18CO; CCD18CO, preliminary panel of 45 CRC cell lines)?
A: Resistant (resistant cell lines had IC50 values of >50 nmol/L)

Q: And the IC50 (CCD18CO; Homo sapiens, CCD-18Co, 72 h)?
A: 2560 nM

Q: What about the “Sensitivity to BMS-754807” value (COLO-201; COLO201, preliminary panel of 45 CRC cell lines) of the same compound?
A: Resistant (resistant cell lines had IC50 values of >50 nmol/L)

Q: And the “Sensitivity Classes” value (COLO-201; COLO-201)?
A: R (“R” refers Resistant)

Q: What about the IC50 (COLO-201; Homo sapiens, COLO 201, 72 h) of the same compound?
A: 2760 nM

Q: And the “Sensitivity to BMS-754807” value (COLO-320-HSR; COLO320HSR, preliminary panel of 45 CRC cell lines)?
A: Sensitive (a sensitive cell line was classified as one with an IC50 of ≦50 nmol/L)

Q: What about the “Sensitivity Classes” value (COLO-320-HSR; COLO-320-HSR) of the same compound?
A: S (“S” refers Sensitive)

Q: And the IC50 (COLO-320-HSR; Homo sapiens, COLO-320-HSR, 72 h)?
A: 35 nM

Q: What about the “Sensitivity Classes” value (COLO-678; COLO-678) of the same compound?
A: R (“R” refers Resistant)

Q: What about the IC50 (COLO-678; Homo sapiens, COLO-678, 72 h) of the same compound?
A: 192 nM

Q: And the “Sensitivity Classes” value (COLO741; COLO741)?
A: R (“R” refers Resistant)

Q: What about the IC50 (COLO741; Homo sapiens, COLO-741, 72 h) of the same compound?
A: 1350 nM

Q: What about the “Sensitivity Classes” value (CX-1; CX-1) of the same compound?
A: R (“R” refers Resistant)

Q: What about the “Sensitivity to BMS-754807” value (CX-1; CX-1, preliminary panel of 45 CRC cell lines) of the same compound?
A: Intermediate (remaining 30 cell lines classified as Intermediate or resistant)

Q: What about the IC50 (CX-1; Homo sapiens, CX-1, 72 h) of the same compound?
A: 194 nM

Q: And the “Sensitivity Classes” value (DIFI; DIFI)?
A: S (“S” refers Sensitive)

Q: And the “Sensitivity to BMS-754807” value (DIFI; DIFI, preliminary panel of 45 CRC cell lines)?
A: Sensitive (a sensitive cell line was classified as one with an IC50 of ≦50 nmol/L)

Q: And the IC50 (DIFI; Homo sapiens, DiFi, 72 h)?
A: 12 nM

Q: And the “Sensitivity Classes” value (DLD-1; DLD-1)?
A: R (“R” refers Resistant)

Q: And the “Sensitivity to BMS-754807” value (DLD-1; DLD-1, preliminary panel of 45 CRC cell lines)?
A: Resistant (resistant cell lines had IC50 values of >50 nmol/L)

Q: And the IC50 (DLD-1; DLD-1)?
A: 666 nM

Q: And the IC50 (DLD-1; DLD-1, 72 h)?
A: 666 nM

Q: What about the “Sensitivity to BMS-754807” value (HCT-116; HCT116, preliminary panel of 45 CRC cell lines) of the same compound?
A: Resistant (resistant cell lines had IC50 values of >50 nmol/L)

Q: And the “Sensitivity Classes” value (HCT-116; HCT-116)?
A: R (“R” refers Resistant)

Q: What about the IC50 (HCT-116; Homo sapiens, HCT-116, 72 h) of the same compound?
A: 503 nM

Q: And the “Sensitivity Classes” value (HCT116SS42; HCT116SS42)?
A: R (“R” refers Resistant)

Q: What about the “Sensitivity to BMS-754807” value (HCT116SS42; HCT116SS42, preliminary panel of 45 CRC cell lines) of the same compound?
A: Intermediate (remaining 30 cell lines classified as Intermediate or resistant)

Q: What about the IC50 (HCT116SS42; Homo sapiens, 72 h) of the same compound?
A: 427 nM

Q: And the “Sensitivity Classes” value (HCT8; HCT8)?
A: R (“R” refers Resistant)

Q: And the “Sensitivity to BMS-754807” value (HCT8; HCT8, preliminary panel of 45 CRC cell lines)?
A: Resistant (resistant cell lines had IC50 values of >50 nmol/L)

Q: What about the IC50 (HCT8; Homo sapiens, HCT-8, 72 h) of the same compound?
A: 4860 nM

Q: And the “Sensitivity to BMS-754807” value (HT-29; HT29, preliminary panel of 45 CRC cell lines)?
A: Intermediate (remaining 30 cell lines classified as Intermediate or resistant)

Q: What about the “Sensitivity Classes” value (HT-29; HT-29) of the same compound?
A: R (“R” refers Resistant)

Q: What about the IC50 (HT-29; Homo sapiens, HT-29, 72 h) of the same compound?
A: 451 nM

Q: What about the “Sensitivity Classes” value (HT55; HT55) of the same compound?
A: S (“S” refers Sensitive)

Q: And the IC50 (HT55; Homo sapiens, HT55, 72 h)?
A: 3 nM

Q: What about the “Sensitivity Classes” value (KM12C) of the same compound?
A: S (“S” refers Sensitive)

Q: What about the IC50 (KM12C; Homo sapiens, 72 h) of the same compound?
A: 33 nM

Q: And the “Sensitivity to BMS-754807” value (KM12C; [1])?
A: Sensitive (a sensitive cell line was classified as one with an IC50 of ≦50 nmol/L)

Q: And the “Sensitivity Classes” value (LS174T)?
A: R (“R” refers Resistant)

Q: And the IC50 (LS174T; Homo sapiens, 72 h)?
A: 358 nM

Q: What about the “Sensitivity to BMS-754807” value (LS174T; [1]) of the same compound?
A: Intermediate (remaining 30 cell lines classified as Intermediate or resistant)

Q: What about the “Sensitivity to BMS-754807” value (NCI-H508; H508, preliminary panel of 45 CRC cell lines) of the same compound?
A: Sensitive (a sensitive cell line was classified as one with an IC50 of ≦50 nmol/L)

Q: What about the IC50 (NCI-H508; Homo sapiens, NCI-H508, 72 h) of the same compound?
A: 11 nM

Q: What about the “Sensitivity Classes” value (NCI-H508; NCI-H508) of the same compound?
A: S (“S” refers Sensitive)

Q: What about the IC50 (OUMS-23; Homo sapiens, OUMS-23, 72 h) of the same compound?
A: 2220 nM

Q: And the “Sensitivity Classes” value (OUMS-23; OUMS-23)?
A: R (“R” refers Resistant)

Q: And the IC50 (RCM-1; Homo sapiens, RCM-1, 72 h)?
A: 24 nM

Q: And the “Sensitivity Classes” value (RCM-1; RCM-1)?
A: S (“S” refers Sensitive)

Q: What about the “Sensitivity Classes” value (RKO) of the same compound?
A: R (“R” refers Resistant)

Q: What about the IC50 (RKO; Homo sapiens, 72 h) of the same compound?
A: 857 nM

Q: And the “Sensitivity to BMS-754807” value (RKO; [1])?
A: Resistant (resistant cell lines had IC50 values of >50 nmol/L)

Q: And the IC50 (SNU-407; Homo sapiens, SNU-407, 72 h)?
A: 13 nM

Q: And the “Sensitivity Classes” value (SNU-407; SNU-407)?
A: S (“S” refers Sensitive)

Q: And the IC50 (SNU-81; Homo sapiens, 72 h)?
A: 5000 nM

Q: And the “Sensitivity Classes” value (SNU-81; SNU-81)?
A: R (“R” refers Resistant)

Q: And the IC50 (SNU-C1; Homo sapiens, SNU-C1, 72 h)?
A: 13 nM

Q: What about the “Sensitivity Classes” value (SNU-C1; SNU-C1) of the same compound?
A: S (“S” refers Sensitive)

Q: What about the “Sensitivity to BMS-754807” value (SNU-C1; SNUC1, preliminary panel of 45 CRC cell lines) of the same compound?
A: Sensitive (a sensitive cell line was classified as one with an IC50 of ≦50 nmol/L)

Q: And the IC50 (SW1417; Homo sapiens, SW1417, 72 h)?
A: 106 nM

Q: What about the “Sensitivity Classes” value (SW1417; SW1417) of the same compound?
A: R (“R” refers Resistant)

Q: What about the “Sensitivity to BMS-754807” value (SW1417; SW1417, preliminary panel of 45 CRC cell lines) of the same compound?
A: Intermediate (remaining 30 cell lines classified as Intermediate or resistant)

Q: What about the IC50 (SW480; Homo sapiens, SW480, 72 h) of the same compound?
A: 4890 nM

Q: What about the “Sensitivity Classes” value (SW480; SW480) of the same compound?
A: R (“R” refers Resistant)

Q: What about the “Sensitivity to BMS-754807” value (SW480; SW480, preliminary panel of 45 CRC cell lines) of the same compound?
A: Resistant (resistant cell lines had IC50 values of >50 nmol/L)

Q: And the IC50 (SW620; Homo sapiens, SW-620, 72 h)?
A: 1830 nM

Q: What about the “Sensitivity Classes” value (SW620; SW620) of the same compound?
A: R (“R” refers Resistant)

Q: And the “Sensitivity to BMS-754807” value (SW620; SW620, preliminary panel of 45 CRC cell lines)?
A: Resistant (resistant cell lines had IC50 values of >50 nmol/L)

Q: What about the IC50 (SW837; Homo sapiens, SW837, 72 h) of the same compound?
A: 1890 nM

Q: What about the “Sensitivity Classes” value (SW837; SW837) of the same compound?
A: R (“R” refers Resistant)

Q: And the “Sensitivity to BMS-754807” value (SW837; SW837, preliminary panel of 45 CRC cell lines)?
A: Resistant (resistant cell lines had IC50 values of >50 nmol/L)

Q: And the IC50 (SW948; Homo sapiens, SW948, 72 h)?
A: 18 nM

Q: What about the “Sensitivity Classes” value (SW948; SW948) of the same compound?
A: S (“S” refers Sensitive)

Q: What about the “Sensitivity to BMS-754807” value (SW948; SW948, preliminary panel of 45 CRC cell lines) of the same compound?
A: Sensitive (a sensitive cell line was classified as one with an IC50 of ≦50 nmol/L)

Q: And the IC50 (T84; Homo sapiens, T84, 72 h)?
A: 5200 nM

Q: What about the “Sensitivity Classes” value (T84; T84) of the same compound?
A: R (“R” refers Resistant)

Q: What about the “Sensitivity to BMS-754807” value (T84; T84, preliminary panel of 45 CRC cell lines) of the same compound?
A: Resistant (resistant cell lines had IC50 values of >50 nmol/L)
